Assay results taken from paper PMC8214221, “Sequence determinants in the cathelicidin LL-37 that promote inflammation via presentation of RNA to scavenger receptors” (The Journal of Biological Chemistry, 2021).
Residues, ends and D or L forms follow the SMILES beside them.

Tests used:
[1] = tested on: normal human epidermal keratinocytes (NHEKs); assay: LDH release cytotoxicity assay in keratinocytes; format: cell-based; settings: minimal concentration giving 50% LDH release by NHEKs
How it was run: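 Normal human epidermal keratinocytes were exposed to LL-34 parent and alanine-substituted peptides. Cytotoxicity was read as LDH release in fresh culture supernatants after treatment, using a commercial kit, and reported as the minimal concentration showing toxicity.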

[2] = tested on: NHEKs, IL-6 secretion in response to U1 dsRNA; assay: IL-6 secretion ELISA in NHEKs; format: cell-based, human; settings: U1 dsRNA 2.5 μg/ml + peptide 2 μM, 18 h, n = 3
Description: Protein levels of human IL-6 were analyzed from cell supernatant with ELISA (n = 3). Corresponding MIC values of LL-34 peptides L1A–R34A against Staphylococcus aureus USA300 are shown in the heat map. B, human dermal endothelial cells (HDMECs) were treated with either U1 dsRNA (2.5 μg/ml) or a combination of U1 dsRNA (2.5 μg/ml) and LL-34 peptides (Pep 1–Pep 34 and Pep–parent LL-34) at 2 μM for 18 h. IL-6 ELISA results are shown (n = 3). Green bars denote loss of IL-6 protein secretion compared with parent control shown in red. C, helical wheel plot for LL-34. Amino acids with green circles denote specific residues where replacement with an alanine caused the loss of IL-6 secretion compared with parent LL-34 peptide in NHEKs cotreated with U1 dsRNA. D, in the helical wheel plot for LL-34, circled green amino acids indicate that a substitution caused a loss of vetting in HDMEC. E–H, NHEKs were treated with LL-34-parent peptide (LL-34-P), LL-34-F5A, LL-34-I24A, LL-34-F27A, and LL-34-L31A at 2 μM, either individually or in combination with U1 dsRNA (2.5 μg/ml) for 8 h. Gene expression of IL-6, IFNB1, TSLP, and CXCL10 was assessed with qRT-PCR. GAPDH was used as a reference gene (n = 3) (∗p < 0.05; ∗∗∗∗p < 0.0001). One way-ANOVA was used. IL-6, interleukin 6; LL-34, 34-amino acid peptide; MIC, minimum inhibitory concentration, ns, not significant.
We hypothesized that sequential replacement of each amino acid in LL-34 peptide with a neutral amino acid alanine might reveal the amino acid residues critical for its ability to induce inflammation in response to U1 dsRNA. First, we treated NHEKs and human dermal microvascular endothelial cells (HDMECs) with LL-34 parent peptide and each of the 34 mutants at 2 μM for 18 h and measured the secretion of interleukin 6 (IL-6) in the supernatant by ELISA (Fig. S1, A and B). […] We then treated both NHEKs and HDMECs with a combination of U1 dsRNA (2.5 μg/ml) and the LL-34 parent/mutant peptides at 2 μM for 18 h and measured IL-6 secretion (Fig. 1, A–C). […] A similar pattern of IL-6 release was observed when HDMECs were treated with the peptide library and U1 dsRNA (Fig. 1B).
Cell culture supernatant was frozen at −80 °C until use for analysis. ELISA was performed with sandwich ELISA kits (R&D Systems) and quantified on a Spectramax Absorbance reader (Molecular Biosystems). Data were analyzed with GraphPad.

Compound | Minimal cytotoxic concentration in NHEK (LD50) [1] [µM] | IL-6 protein secretion, cotreatment with U1 dsRNA, vs U1 dsRNA + LL-34 parent [2]
CC[C@H](C)[C@H](NC(=O)[C@H](CCCCN)NC(=O)[C@H](CCC(=O)O)NC(=O)[C@H](CCCCN)NC(=O)[C@H](CO)NC(=O)[C@H](CCCCN)NC(=O)[C@H](CCCNC(=N)N)NC(=O)[C@H](C)NC(=O)[C@H](Cc1ccccc1)NC(=O)[C@H](CC(=O)O)NC(=O)CNC(=O)[C@H](CC(C)C)NC(=O)[C@@H](N)CC(C)C)C(=O)NCC(=O)N[C@@H](CCCCN)C(=O)N[C@@H](CCC(=O)O)C(=O)N[C@@H](Cc1ccccc1)C(=O)N[C@@H](CCCCN)C(=O)N[C@@H](CCCNC(=N)N)C(=O)N[C@H](C(=O)N[C@H](C(=O)N[C@@H](CCC(N)=O)C(=O)N[C@@H](CCCNC(=N)N)C(=O)N[C@H](C(=O)N[C@@H](CCCCN)C(=O)N[C@@H](CC(=O)O)C(=O)N[C@@H](Cc1ccccc1)C(=O)N[C@@H](CC(C)C)C(=O)N[C@@H](CCCNC(=N)N)C(=O)N[C@@H](CC(N)=O)C(=O)N[C@@H](CC(C)C)C(=O)N[C@H](C(=O)N1CCC[C@H]1C(=O)N[C@@H](CCCNC(=N)N)C(=O)O)C(C)C)[C@@H](C)CC)C(C)C)[C@@H](C)CC [LL-34—F6A] (H-LLGDFARKSKEKIGKEFKRIVQRIKDFLRNLVPR-OH) | 5 | reduced secretion of IL-6 protein
CC[C@H](C)[C@H](NC(=O)[C@H](CCCCN)NC(=O)[C@H](CCC(=O)O)NC(=O)[C@H](CCCCN)NC(=O)[C@H](CO)NC(=O)[C@H](CCCCN)NC(=O)[C@H](CCCNC(=N)N)NC(=O)[C@H](Cc1ccccc1)NC(=O)[C@H](Cc1ccccc1)NC(=O)[C@H](CC(=O)O)NC(=O)CNC(=O)[C@H](CC(C)C)NC(=O)[C@@H](N)CC(C)C)C(=O)NCC(=O)N[C@@H](CCCCN)C(=O)N[C@@H](CCC(=O)O)C(=O)N[C@@H](C)C(=O)N[C@@H](CCCCN)C(=O)N[C@@H](CCCNC(=N)N)C(=O)N[C@H](C(=O)N[C@H](C(=O)N[C@@H](CCC(N)=O)C(=O)N[C@@H](CCCNC(=N)N)C(=O)N[C@H](C(=O)N[C@@H](CCCCN)C(=O)N[C@@H](CC(=O)O)C(=O)N[C@@H](Cc1ccccc1)C(=O)N[C@@H](CC(C)C)C(=O)N[C@@H](CCCNC(=N)N)C(=O)N[C@@H](CC(N)=O)C(=O)N[C@@H](CC(C)C)C(=O)N[C@H](C(=O)N1CCC[C@H]1C(=O)N[C@@H](CCCNC(=N)N)C(=O)O)C(C)C)[C@@H](C)CC)C(C)C)[C@@H](C)CC [LL-34—F17A] (H-LLGDFFRKSKEKIGKEAKRIVQRIKDFLRNLVPR-OH) | 5 | reduced secretion of IL-6 protein
CC[C@H](C)[C@H](NC(=O)[C@H](CCCCN)NC(=O)[C@H](CCC(=O)O)NC(=O)[C@H](CCCCN)NC(=O)[C@H](CO)NC(=O)[C@H](CCCCN)NC(=O)[C@H](CCCNC(=N)N)NC(=O)[C@H](Cc1ccccc1)NC(=O)[C@H](Cc1ccccc1)NC(=O)[C@H](CC(=O)O)NC(=O)CNC(=O)[C@H](CC(C)C)NC(=O)[C@@H](N)CC(C)C)C(=O)NCC(=O)N[C@@H](CCCCN)C(=O)N[C@@H](CCC(=O)O)C(=O)N[C@@H](Cc1ccccc1)C(=O)N[C@@H](CCCCN)C(=O)N[C@@H](CCCNC(=N)N)C(=O)N[C@@H](C)C(=O)N[C@H](C(=O)N[C@@H](CCC(N)=O)C(=O)N[C@@H](CCCNC(=N)N)C(=O)N[C@H](C(=O)N[C@@H](CCCCN)C(=O)N[C@@H](CC(=O)O)C(=O)N[C@@H](Cc1ccccc1)C(=O)N[C@@H](CC(C)C)C(=O)N[C@@H](CCCNC(=N)N)C(=O)N[C@@H](CC(N)=O)C(=O)N[C@@H](CC(C)C)C(=O)N[C@H](C(=O)N1CCC[C@H]1C(=O)N[C@@H](CCCNC(=N)N)C(=O)O)C(C)C)[C@@H](C)CC)C(C)C [LL-34—I20A] (H-LLGDFFRKSKEKIGKEFKRAVQRIKDFLRNLVPR-OH) | 5 | reduced secretion of IL-6 protein
CC[C@H](C)[C@H](NC(=O)[C@H](C)NC(=O)[C@H](CCC(N)=O)NC(=O)[C@@H](NC(=O)[C@@H](NC(=O)[C@H](CCCNC(=N)N)NC(=O)[C@H](CCCCN)NC(=O)[C@H](Cc1ccccc1)NC(=O)[C@H](CCC(=O)O)NC(=O)[C@H](CCCCN)NC(=O)CNC(=O)[C@@H](NC(=O)[C@H](CCCCN)NC(=O)[C@H](CCC(=O)O)NC(=O)[C@H](CCCCN)NC(=O)[C@H](CO)NC(=O)[C@H](CCCCN)NC(=O)[C@H](CCCNC(=N)N)NC(=O)[C@H](Cc1ccccc1)NC(=O)[C@H](Cc1ccccc1)NC(=O)[C@H](CC(=O)O)NC(=O)CNC(=O)[C@H](CC(C)C)NC(=O)[C@@H](N)CC(C)C)[C@@H](C)CC)[C@@H](C)CC)C(C)C)C(=O)N[C@@H](CCCCN)C(=O)N[C@@H](CC(=O)O)C(=O)N[C@@H](Cc1ccccc1)C(=O)N[C@@H](CC(C)C)C(=O)N[C@@H](CCCNC(=N)N)C(=O)N[C@@H](CC(N)=O)C(=O)N[C@@H](CC(C)C)C(=O)N[C@H](C(=O)N1CCC[C@H]1C(=O)N[C@@H](CCCNC(=N)N)C(=O)O)C(C)C [LL-34—R23A] (H-LLGDFFRKSKEKIGKEFKRIVQAIKDFLRNLVPR-OH) | 10 | reduced secretion of IL-6 protein
CC[C@H](C)[C@H](NC(=O)[C@H](CCCCN)NC(=O)[C@H](CCC(=O)O)NC(=O)[C@H](CCCCN)NC(=O)[C@H](C)NC(=O)[C@H](CCCCN)NC(=O)[C@H](CCCNC(=N)N)NC(=O)[C@H](Cc1ccccc1)NC(=O)[C@H](Cc1ccccc1)NC(=O)[C@H](CC(=O)O)NC(=O)CNC(=O)[C@H](CC(C)C)NC(=O)[C@@H](N)CC(C)C)C(=O)NCC(=O)N[C@@H](CCCCN)C(=O)N[C@@H](CCC(=O)O)C(=O)N[C@@H](Cc1ccccc1)C(=O)N[C@@H](CCCCN)C(=O)N[C@@H](CCCNC(=N)N)C(=O)N[C@H](C(=O)N[C@H](C(=O)N[C@@H](CCC(N)=O)C(=O)N[C@@H](CCCNC(=N)N)C(=O)N[C@H](C(=O)N[C@@H](CCCCN)C(=O)N[C@@H](CC(=O)O)C(=O)N[C@@H](Cc1ccccc1)C(=O)N[C@@H](CC(C)C)C(=O)N[C@@H](CCCNC(=N)N)C(=O)N[C@@H](CC(N)=O)C(=O)N[C@@H](CC(C)C)C(=O)N[C@H](C(=O)N1CCC[C@H]1C(=O)N[C@@H](CCCNC(=N)N)C(=O)O)C(C)C)[C@@H](C)CC)C(C)C)[C@@H](C)CC [LL-34—S9A] (H-LLGDFFRKAKEKIGKEFKRIVQRIKDFLRNLVPR-OH; N-terminus and C-terminus assumed) | 5 | –
CC[C@H](C)[C@H](NC(=O)[C@H](CCCCN)NC(=O)[C@H](CCC(=O)O)NC(=O)[C@H](CCCCN)NC(=O)[C@H](CO)NC(=O)[C@H](CCCCN)NC(=O)[C@H](CCCNC(=N)N)NC(=O)[C@H](Cc1ccccc1)NC(=O)[C@H](Cc1ccccc1)NC(=O)[C@H](CC(=O)O)NC(=O)CNC(=O)[C@H](CC(C)C)NC(=O)[C@@H](N)CC(C)C)C(=O)NCC(=O)N[C@@H](CCCCN)C(=O)N[C@@H](CCC(=O)O)C(=O)N[C@@H](Cc1ccccc1)C(=O)N[C@@H](CCCCN)C(=O)N[C@@H](CCCNC(=N)N)C(=O)N[C@H](C(=O)N[C@@H](C)C(=O)N[C@@H](CCC(N)=O)C(=O)N[C@@H](CCCNC(=N)N)C(=O)N[C@H](C(=O)N[C@@H](CCCCN)C(=O)N[C@@H](CC(=O)O)C(=O)N[C@@H](Cc1ccccc1)C(=O)N[C@@H](CC(C)C)C(=O)N[C@@H](CCCNC(=N)N)C(=O)N[C@@H](CC(N)=O)C(=O)N[C@@H](CC(C)C)C(=O)N[C@H](C(=O)N1CCC[C@H]1C(=O)N[C@@H](CCCNC(=N)N)C(=O)O)C(C)C)[C@@H](C)CC)[C@@H](C)CC [LL-34—V21A] (H-LLGDFFRKSKEKIGKEFKRIAQRIKDFLRNLVPR-OH; N-terminus and C-terminus assumed) | 5 | –
